Source: patent publication US10912741B2, “Prevention of liver cancer with safranal-based formulations” (United Arab Emirates University, priority 2019, dated 2021)

Key:
[1] = Cell viability assay (CellTiter-Glo); type: cell-based, human; conditions: human, HepG2 cells, 1 mM safranal, read-out: reduction of cell viability
Description: (§1) HepG2, were cultured in RPMI 1640 medium (HyClone, USA) and 1% of 100 U/ml penicillin and 100 ug/ml streptomycin (Sigma, USA) supplemented with 10% fetal bovine serum (Sigma, USA) at 37° C. in a humidified 5% CO2 atmosphere. Cells were sub-cultured each 4-6 days using trypsin 0.25% (Hyclone, USA).
(§2) HepG2 cells were seeded in 96-well plates at the density of 10000 cells/well and grown in 100 uL of complete growth medium. Complete growth medium was replaced by serum-free medium after cells were allowed to attach for 24 hours; after which cells were incubated for at least 12 hours. Cells were incubated for 24 hours after treatment with various concentrations of safranal (1 mM, 0.3 mM, 0.1 mM, 0.03 mM, 0.01 mM) prepared from 10 mM stock solution. After incubation period, viability of HepG2 cells was assessed using CellTiter-Glo luminescent cell viability assay kit according to manufacturer's instruction (Promega, USA).

HepG2 cells = assay: Cell viability assay (CellTiter-Glo); type: cell-based, human; conditions: 0.01, 0.03, 0.1, 0.3, 1 mM, 24 hours
Description: as §1, §2

TNF-α = TNF-α level in serum by ELISA; type: in vivo, albino Wistar rats
Description: The experimental hepatocarcinogenesis model was developed according to a protocol by Espandiaria et al. that was adapted for our purposes. To initiate and promote hepatocarcinogenesis, diethylnitrosamine (DEN) and 2-acetylaminofluorene (2-AAF) were used, respectively. For hepatocarcinogenesis initiation in this model, a single DEN dose (200 mg/kg b.wt.) dissolved in saline was injected intraperitoneally. After initiation, all rats underwent one period of 5-days fasting, as mitotic proliferative stimuli. To promote hepatocarcinogenesis, 2-acetylaminofluorene (2-AAF) was introduced in the form of six daily intragastric doses (30 mg/kg in 1% Tween 80); two weeks after DEN treatment.
Safranal at doses of 25 mg/kg by weight (b.wt.) and 50 mg/kg b.wt, was administrated orally to rats. These doses have been reported to suppress chemically-induced oxidative damage in rats. A total of 40 adult male albino Wistar rats were randomly divided into […] (n=8) and were subjected to different treatments. Group 1 (control) was orally administered distilled water (5 ml/kg b.wt.) throughout the experimental duration and were injected with a single dose of saline. […]
TNF-α level in serum was quantitatively measured using Enzyme-Linked Immunosorbent Assay (ELISA), according to the manufacturer instructions (ELISA kits (R&D Systems), Minnesota, USA. Results are presented in picograms/milligrams.

For `CC1=C(C=O)C(C)(C)CC=C1` [Safranal, 2,6,6-trimethylcyclohexa-1,3-diene-1-carbaldehyde], the cytotoxicity at 24 h, 1 mM [1] was about 70%, the HepG2 cells viability (HepG2 cells) was “significant dose-dependent reduction” and the “TNF-α level in serum” value (TNF-α; low/high doses of safranal after DEN exposure (groups 4-5)) was “significant reduction in TNF-α expression”. For the same compound, the “TNF-α level in serum” value (TNF-α; safranal alone (group 2), vs control group) was “no significant impact”.
